Laboratory results: ChEMBL document CHEMBL2203186, “T-type Ca2+ channel blocker, KYS05047 induces G1 phase cell cycle arrest by decreasing intracellular Ca2+ levels in human lung adenocarcinoma A549 cells” (Bioorg Med Chem Lett, 2012)
Activity calls are given as the source filed them. The calls are words filed in the database; no cut-off is given here.

Experiments:
[1] = system: A549; test: Cytocidal activity in human A549 cells at 6 to 8 uM by trypan Blue assay; type: functional, cell-based
[2] = system: A549; test: Upregulation of p27Kip1 protein level in human A549 cells assessed as inhibition of CDK2 activity at 7 uM by Western blot method; type: functional, cell-based; conditions: TDE = time-dependent effect
[3] = system: A549; test: Downregulation of Cdk2 protein level in human A549 cells at 7 uM after 3 to 24 hrs by Western blot method; type: functional, cell-based
[4] = system: A549; test: Upregulation of p27Kip1 protein level in human A549 cells assessed as inhibition of AKT activity at 7 uM by Western blot method; type: functional, cell-based; conditions: TDE = time-dependent effect
[5] = system: A549; test: Antitumor activity against human A549 cells xenografted in BALB/c nu/nu mouse assessed as tumor growth inhibition at 2 to 10 mg/kg, po administered 5 times a week for 21 days; type: functional, organism-based
[6] = system: A549; test: Growth inhibition of human A549 cells at 4 to 12 uM by trypan Blue assay; type: functional, cell-based; conditions: TDE = time-dependent effect
[7] = system: A549; test: Effect on Cyclin E protein level in human A549 cells at 7 uM after 3 to 24 hrs by Western blot method; type: functional, cell-based
[8] = system: A549; test: Effect on p21Waf1 protein level in human A549 cells at 7 uM after 3 to 24 hrs by Western blot method; type: functional, cell-based
[9] = system: A549; test: Growth inhibition of human A549 cells at 6 to 48 hrs by trypan Blue assay; type: functional, cell-based
[10] = system: A549; test: Downregulation of Cdk4 protein level in human A549 cells at 7 uM after 3 to 24 hrs by Western blot method; type: functional, cell-based
[11] = system: A549; test: Effect on Cyclin D1 protein level in human A549 cells at 7 uM after 3 to 24 hrs by Western blot method; type: functional, cell-based
[12] = system: A549; test: Inhibition of T-type Ca2+ channel in human A549 cells assessed as reduction in intracellular ca2+ level at 3 to 8 uM after 108 mins by Fluo-4 staining method in presence of KCl; type: cell-based
[13] = system: A549; test: Cell cycle arrest at G1 phase in human A549 cells at 7 uM after 24 hrs using propidium iodide by flow cytometry; type: functional, cell-based
[14] = system: A549; test: Upregulation of p27Kip1 protein level in human A549 cells assessed as inhibition of mTOR activity at 7 uM by Western blot method; type: functional, cell-based; conditions: TDE = time-dependent effect
[15] = system: A549; test: Upregulation of p27Kip1 protein level in human A549 cells assessed as inhibition of CDK4-mediated Rb phosphorylation at 7 uM by Western blot method; type: functional, cell-based; conditions: TDE = time-dependent effect
[16] = system: A549; test: Upregulation of p27Kip1 protein level in human A549 cells at 7 uM by Western blot method; type: functional, cell-based; conditions: TDE = time-dependent effect
[17] = system: A549; test: Cell cycle arrest in human A549 cells assessed as reduction in cells at S phase at 2 to 7 uM after 24 hrs using propidium iodide by flow cytometry; type: functional, cell-based
[18] = system: A549; test: Inhibition of T-type Ca2+ channel in human A549 cells assessed as reduction in intracellular ca2+ level at 3 to 8 uM after 108 mins by Fluo-4 staining method; type: cell-based
[19] = system: A549; test: Cell cycle arrest at G1 phase in human A549 cells at 7 uM after 24 hrs using propidium iodide by flow cytometry in presence of KCl; type: functional, cell-based
[20] = system: Mus musculus; test: Toxicity in BALB/c nu/nu mouse assessed as change in body weight at 20 mg/kg, ip administered twice a week for 21 days; type: organism-based; parameters: dose 20 mg/kg, route intraperitoneal; conditions: in vivo, 504 h
[21] = system: Mus musculus; test: Toxicity in BALB/c nu/nu mouse assessed as mortality at 20 mg/kg, ip administered twice a week for 21 days; type: organism-based; parameters: dose 20 mg/kg, route intraperitoneal; conditions: in vivo, 504 h
[22] = system: A549; test: Antitumor activity against human A549 cells xenografted in BALB/c nu/nu mouse assessed as tumor growth inhibition at 20 mg/kg, ip administered twice a week for 21 days; type: functional, organism-based; parameters: dose 20 mg/kg

**Q.** Which Activity [1] does the source give for CC(C)(C)OC(=O)NCCCCCN1C(Nc2ccc(-c3ccccc3)cc2)=Nc2ccccc2C1CC(=O)NCc1ccccc1 (configuration not stated) here?
**A.** Its Activity is “inactive”.

**Q.** What about the inhibition [2] of the same molecule?
**A.** The inhibition was “tde”.

**Q.** What about the Activity [3] of the same molecule?
**A.** Its Activity is “Active”.

**Q.** And the inhibition [4]?
**A.** The inhibition was “tde”.

**Q.** What about the TGI [5] of the same molecule?
**A.** The TGI was “Active”.

**Q.** What about the “growth inhibition (GI)” value [6] of the same molecule?
**A.** Its value is “tde”.

**Q.** And the Activity [7]?
**A.** The Activity was “inactive”.

**Q.** What about the Activity [8] of the same molecule?
**A.** Its Activity is “inactive”.

**Q.** And the “growth inhibition (GI)” value [9]?
**A.** The value was “Dose-dependent effect”.

**Q.** And the Activity [10]?
**A.** Its Activity is “Active”.

**Q.** And the Activity [11]?
**A.** Its Activity is “inactive”.

**Q.** And the inhibition [12]?
**A.** The inhibition was “inactive”.

**Q.** And the Activity [13]?
**A.** The Activity was “Active”.

**Q.** And the inhibition [14]?
**A.** Its inhibition is “tde”.

**Q.** What about the inhibition [15] of the same molecule?
**A.** Its inhibition is “tde”.

**Q.** And the Activity [16]?
**A.** Its Activity is “tde”.

**Q.** What about the Activity [17] of the same molecule?
**A.** The Activity was “Active”.

**Q.** And the inhibition [18]?
**A.** Its inhibition is “Active”.

**Q.** What about the Activity [19] of the same molecule?
**A.** The Activity was “inactive”.

**Q.** For CC(=O)O[C@H]1C(=O)[C@@]2(C)[C@H]([C@H](OC(=O)c3ccccc3)[C@]3(O)C[C@H](OC(=O)[C@H](O)[C@@H](NC(=O)c4ccccc4)c4ccccc4)C(C)=C1C3(C)C)[C@]1(OC(C)=O)CO[C@@H]1C[C@@H]2O [PACLITAXEL], which Activity [20] is on record?
**A.** The Activity was “Non-toxic”.

**Q.** And the Activity [21]?
**A.** Its Activity is “Non-toxic”.

**Q.** And the TGI [22]?
**A.** The TGI was “Active”.
